What was measured:
HIV-1 (Ba-L) = test: inhibition of HIV proliferation in monocytes (p24 antigen ELISA); format: cell-based; conditions: HIV-infected human monocytes; compared with ddCTP liposomes
in vitro [1] = format: in vitro ADME; conditions: serum-containing medium with cells
[2] = capture / encapsulation volume of ddCTP liposomes; format: physicochemical
Experimental: The amount of lipid in the preparation was determined from ¹⁴C counts (¹⁴C-cholesteryl oleate) in a standard beta counting scintillation fluid. The amount of ddCTP was assessed from the optical density at 280 nm. Samples for optical density reading were prepared by adding 0.9 ml of 65:25 chloroform ethanol solution to 0.5 ml of the sample. This eliminated light scatter that would otherwise have resulted from the presence of lipid particles. Negative staining electron microscopy was performed using glow-discharged formvar-carbon coated grids and sodium phosphotungstate. Release of ddCTP from liposomes was assessed by dialysis of samples against phosphate buffered saline. The integrity of ddCTP was assessed by high-performance gradient-elution anion exchange chromatography.
The amounts of lipid and ddCTP in the preparation were calculated from ¹⁴C and ³H counts, respectively. Encapsulation was generally in the range of 1.5 - 2 microliters/micromole EPC. The size distribution of liposomes was determined by quasi-elastic light-scattering (QELS) using an N4MD multiple-angle submicron particle size analyzer (Coulter, Hialeah, Fla., USA). […] The profile is substantially similar to that of a fresh preparation. The weight average diameter was about 215 nm with the coefficient of variation being about 100 nm.

in vitro [3] = format: in vitro ADME
Experimental: When the same incubations were done in the absence of monocytes, the results were essentially identical.
Studies were conducted under conditions mimicking those of anti-viral tests. ddCMP: dideoxycytidine monophosphate. Data points represent integrals under HPLC peaks from gradient elution on a VYDAC nucleotide column.

Nc1ccn([C@H]2CC[C@@H](COP(=O)(O)OP(=O)(O)OP(=O)(O)O)O2)c(=O)n1 [ddCTP, 2ʹ,3ʹ-dideoxycytidine-5ʹ-triphosphate]
activity against p24 expression (HIV-1 (Ba-L)): active at similar concentrations
Percent of total drug 3H as ddCTP (in vitro [1]; 0.5 h): 67.8%
remaining at 72 h (in vitro [1]; Percent of total drug 3H as ddCTP): 0%
calculated capture ([2]; Example 1 liposomes (DPPC/DPPG/cholesterol)): 2.6 microliters/micromole lipid
Encapsulation ([2]; Example 2 liposomes (EPC/PS/cholesterol)): 1.5 - 2 microliters/micromole EPC
conversion to ddCMP (in vitro [3]): largely converted to ddCMP
fraction present as ddC (in vitro [3]): 23%
Percent of total drug 3H as ddCTP (in vitro [3]; 10% fetal calf serum medium, 0.5 h): 39.6%
Percent of total drug 3H as ddCTP (in vitro [3]; serum-containing medium with cells, 4 h): 1.4%
Percent of total drug 3H as ddCTP (in vitro [3]; serum-containing medium with cells, 6 h): 1.4%
Percent of total drug 3H as ddCTP (in vitro [3]; serum-containing medium without cells, 0.75 h): 20.3%
Percent of total drug 3H as ddCTP (in vitro [3]; serum-containing medium without cells, 1.5 h): 19.5%
Percent of total drug 3H as ddCTP (in vitro [3]; serum-containing medium without cells, 4 h): 2.7%
Percent of total drug 3H as ddCTP (in vitro [3]; serum-containing medium without cells, 6 h): 0.6%
remaining at 72 h (in vitro [3]; serum-containing medium without cells, Percent of total drug 3H as ddCTP): 0%

Source: patent EP0286418A1, “Anti-retroviral agents and delivery systems for the same” (priority 1987, dated 1988)
